Laboratory results as given in patent EP0844825B1, “INSECTICIDAL N-(SUBSTITUTED ARYLMETHYL)-4- BIS(SUBSTITUTED PHENYL OR PYRIDYL)METHYL]PIPERIDINES” (FMC CORPORATION, priority 1995, dated 1996).

Test system: tobacco budworm (Heliothis virescens [Fabricius])
Assay: Diet test: test chemical incorporated into artificial diet of tobacco budworm larvae, 5-day exposure
Assay type: in vivo
Conditions: for mortality at 100 µM: read-out: Percent Mortality; for IC50: read-out: pl50 (converted); for LC50: negative log of the concentration that provides 50% mortality, read-out: pLC50 (converted)
Method: Candidate insecticides were incorporated into an artificial diet for evaluation of insecticidal activity against the tobacco budworm (Heliothis virescens [Fabricius]) in the following manner. Stock solutions of test chemical in dimethyl sulfoxide, ranging from […], were prepared for each rate of application. One hundred microliters of each of the stock solutions was manually stirred into 50 mL of a molten (65-70°C) wheat germ-based artificial diet. The 50 mL of molten diet containing the test chemical was poured evenly into twenty wells in the outer two rows on each side of a twenty-five well, five row plastic tray. (Each well in the tray was about 1 cm in depth, with an opening of 3 cm by 4 cm at the lip.) Molten diet containing only dimethyl sulfoxide at the levels used in the test chemical-treated diet was poured into the five wells in the third (center) row of the tray. Each tray therefore contained one test chemical at a single rate of application, together with an untreated control. The rates of application, expressed as the negative log of the molar concentration, and the corresponding concentrations of the stock solution prepared for each rate are shown below:
Single second instar tobacco budworm larvae, selected at a stage of growth at which they uniformly weigh about 5 mg each, were placed in each well. Upon completion of infestation, a sheet of clear plastic was heat-sealed over the top of the tray by use of a common household flat.iron. The trays were held at 25°C at 60% relative humidity for five days in a growth chamber. Lighting was set at 14 hours of light and 10 hours of darkness. After the 5-day exposure period, mortality counts were taken, and the surviving insects were weighed. From the weights of the surviving insects that fed on the treated diet as compared to those insects that fed on the untreated diet, the percent growth inhibition caused by each test chemical was determined. […] Also, where possible, the negative log of the concentration of the test chemical that provided 50% mortality (pLC50) was determined.

[1] = Heliothis virescens, feed or water, 120 h
[2] = Heliothis virescens, 120 h, negative log of the concentration that provides 50% growth inhibition, by linear regression, 5 days, * = average of more than one test
[3] = Heliothis virescens, 120 h, 5 days, * = average of more than one test
[4] = rate of application 4 (negative log of molar concentration in the diet), second instar larvae, 5 days, 25°C, * = average of more than one test

SMILES	mortality at 100 µM [1]	other results
Cc1cccnc1Oc1ccc(C[N+]2([O-])CCC(C(O)(c3ccc(C(F)(F)F)cc3)c3ccc(C(F)(F)F)cc3)CC2)cc1 (stereo not shown) [Compound 58]	100%	
Cc1ccc[n+]([O-])c1Oc1ccc(CN2CCC(C(O)(c3ccc(C(F)(F)F)cc3)c3ccc(C(F)(F)F)cc3)CC2)cc1 [Compound 59]	100%	
OC(c1ccc(C(F)(F)F)cc1)(c1ccc(C(F)(F)F)cc1)C1CCN(Cc2ccc(Oc3ncccc3C(F)(F)F)cc2)CC1 [Compound 60]	100%	
[O-][N+]1(Cc2ccc(Oc3ncccc3C(F)(F)F)cc2)CCC(C(O)(c2ccc(C(F)(F)F)cc2)c2ccc(C(F)(F)F)cc2)CC1 (stereo not shown) [Compound 61]	100%	
Cc1ccnc(Oc2ccc(CN3CCC(C(O)(c4ccc(C(F)(F)F)cc4)c4ccc(C(F)(F)F)cc4)CC3)cc2)c1 [Compound 62]	100%	IC50 [2]: 631 nM; LC50 [3]: 6310 nM; Percent Growth Inhibition [4]: 100%
Cc1ccnc(Oc2ccc(C[N+]3([O-])CCC(C(O)(c4ccc(C(F)(F)F)cc4)c4ccc(C(F)(F)F)cc4)CC3)cc2)c1 (stereo not shown) [Compound 63]	100%	
OC(c1ccc(C(F)(F)F)cc1)(c1ccc(C(F)(F)F)cc1)C1CCN(Cc2ccc(Oc3cc(C(F)(F)F)ccn3)cc2)CC1 [Compound 64]	100%	
[O-][n+]1ccc(C(F)(F)F)cc1Oc1ccc(CN2CCC(C(O)(c3ccc(C(F)(F)F)cc3)c3ccc(C(F)(F)F)cc3)CC2)cc1 [Compound 65]	25%	
OC(c1ccc(C(F)(F)F)cc1)(c1ccc(C(F)(F)F)cc1)C1CCN(Cc2ccc(Oc3ccc(Cl)cn3)cc2)CC1 [Compound 66]	100%	
[O-][N+]1(Cc2ccc(Oc3ccc(Cl)cn3)cc2)CCC(C(O)(c2ccc(C(F)(F)F)cc2)c2ccc(C(F)(F)F)cc2)CC1 (stereo not shown) [Compound 67]	70%	
Cc1ccc(Oc2ccc(CN3CCC(C(O)(c4ccc(C(F)(F)F)cc4)c4ccc(C(F)(F)F)cc4)CC3)cc2)nc1 [Compound 68]	90%	
Cc1ccc(Oc2ccc(C[N+]3([O-])CCC(C(O)(c4ccc(C(F)(F)F)cc4)c4ccc(C(F)(F)F)cc4)CC3)cc2)nc1 (stereo not shown) [Compound 69]	100%	
OC(c1ccc(C(F)(F)F)cc1)(c1ccc(C(F)(F)F)cc1)C1CCN(Cc2ccc(Oc3ccc(C(F)(F)F)cn3)cc2)CC1 [Compound 70]	100%	
[O-][N+]1(Cc2ccc(Oc3ccc(C(F)(F)F)cn3)cc2)CCC(C(O)(c2ccc(C(F)(F)F)cc2)c2ccc(C(F)(F)F)cc2)CC1 (stereo not shown) [Compound 71]	100%	
N#Cc1ccc(Oc2ccc(CN3CCC(C(O)(c4ccc(C(F)(F)F)cc4)c4ccc(C(F)(F)F)cc4)CC3)cc2)nc1 [Compound 72]	100%	
N#Cc1ccc(Oc2ccc(C[N+]3([O-])CCC(C(O)(c4ccc(C(F)(F)F)cc4)c4ccc(C(F)(F)F)cc4)CC3)cc2)nc1 (stereo not shown) [Compound 73]	100%	
Cc1cccc(Oc2ccc(CN3CCC(C(O)(c4ccc(C(F)(F)F)cc4)c4ccc(C(F)(F)F)cc4)CC3)cc2)n1 [Compound 75]	100%	

SMILES	mortality at 100 µM [1]	other results
Cc1cccc(Oc2ccc(C[N+]3([O-])CCC(C(O)(c4ccc(C(F)(F)F)cc4)c4ccc(C(F)(F)F)cc4)CC3)cc2)n1 (stereo not shown) [Compound 76]	100%	IC50 [2]: 631 nM; LC50 [3]: 6310 nM; Percent Growth Inhibition [4]: 100%
Cc1cccc(Oc2ccc(C[N+]3([O-])CCC(C(O)(c4ccc(C(F)(F)F)cc4)c4ccc(C(F)(F)F)cc4)CC3)cc2)[n+]1[O-] (stereo not shown) [Compound 77]	60%	
OC(c1ccc(C(F)(F)F)cc1)(c1ccc(C(F)(F)F)cc1)C1CCN(Cc2ccc(OCc3ccccn3)cc2)CC1 [Compound 78]	100%	
[O-][N+]1(Cc2ccc(OCc3ccccn3)cc2)CCC(C(O)(c2ccc(C(F)(F)F)cc2)c2ccc(C(F)(F)F)cc2)CC1 (stereo not shown) [Compound 79]	100%	
[O-][N+]1(Cc2ccc(OCc3cccnc3)cc2)CCC(C(O)(c2ccc(C(F)(F)F)cc2)c2ccc(C(F)(F)F)cc2)CC1 (stereo not shown) [Compound 82]	25%	
CC(Oc1ccc(CN2CCC(C(O)(c3ccc(C(F)(F)F)cc3)c3ccc(C(F)(F)F)cc3)CC2)cc1)c1ccccn1 (stereo not shown) [Compound 83]	100%	IC50 [2]: 1000 nM; LC50 [3]: 31600 nM; Percent Growth Inhibition [4]: 100%
CC(Oc1ccc(C[N+]2([O-])CCC(C(O)(c3ccc(C(F)(F)F)cc3)c3ccc(C(F)(F)F)cc3)CC2)cc1)c1ccccn1 (stereo not shown) [Compound 84]	100%	
CC(C)(Oc1ccc(CN2CCC(C(O)(c3ccc(C(F)(F)F)cc3)c3ccc(C(F)(F)F)cc3)CC2)cc1)c1ccccn1 [Compound 86]	30%	
OC(c1ccc(C(F)(F)F)cc1)(c1ccc(C(F)(F)F)cc1)C1CCN(Cc2ccc(Oc3ncccn3)cc2)CC1 [Compound 95]	100%	
[O-][N+]1(Cc2ccc(Oc3ncccn3)cc2)CCC(C(O)(c2ccc(C(F)(F)F)cc2)c2ccc(C(F)(F)F)cc2)CC1 (stereo not shown) [Compound 96]	100%	
OC(c1ccc(C(F)(F)F)cc1)(c1ccc(C(F)(F)F)cc1)C1CCN(Cc2ccc(-c3nnn(CCF)n3)cc2)CC1 [Compound 98]	100%	
[O-][N+]1(Cc2ccc(-c3nnn(CCF)n3)cc2)CCC(C(O)(c2ccc(C(F)(F)F)cc2)c2ccc(C(F)(F)F)cc2)CC1 (stereo not shown) [Compound 99]	100%	
OC(c1ccc(C(F)(F)F)cc1)(c1ccc(C(F)(F)F)cc1)C1CCN(Cc2ccc(-c3ncccn3)cc2)CC1 [Compound 100]	100%	
[O-][N+]1(Cc2ccc(-c3ncccn3)cc2)CCC(C(O)(c2ccc(C(F)(F)F)cc2)c2ccc(C(F)(F)F)cc2)CC1 (stereo not shown) [Compound 101]	100%	
OC(c1ccc(OC(F)(F)F)cc1)(c1ccccc1OC(F)(F)F)C1CCN(Cc2ccc(C3OCCO3)cc2)CC1 (stereo not shown) [Compound 103, N-[4-(1,3-dioxolan-2-yl)phenylmethyl]-4-[(4-trifluoromethoxyphenyl)(2-trifluoromethoxyphenyl)hydroxymethyl]piperidine]	100%	IC50 [2]: ≤ 316 nM; LC50 [3]: 12600 nM; pest or weed control at 100 µM (Heliothis virescens, feed or water, 120 h, rate of application 4 (negative log of molar concentration in the diet), second instar larvae, 5 days, 25°C, * = average of more than one test, read-out: Percent Growth Inhibition): 100%
CCn1nnc(-c2ccc(CN3CCC(C(O)(c4ccc(C(F)(F)F)cn4)c4ccc(C(F)(F)F)cn4)CC3)cc2)n1 [Compound 104]	100%	IC50 [2]: ≤ 316 nM; LC50 [3]: 398 nM; pl50 (negative log of the concentration that provides 50% growth inhibition, by linear regression, 5 days, * = average of more than one test): 6.8; Percent Growth Inhibition [4]: 100%
